In experiment [1] the target is SMARCA2(iso.A) (Homo sapiens, UniProt P51531). The experiment can be described thus: BROMOscan ligand-binding assay.
Description: BROMOscan is a binding assay based on the well-known KINOMEscan technology. This assay measures the binding of a DNA-tagged bromodomain to an immobilized BRD ligand. If an inhibitor is present, it will compete with the bromodomain binding to the immobilized ligand, resulting in reduction of a quantitative PCR (qPCR) signal in a dose-dependent manner.
The target of experiment [2] is T1, MAPK1 (Homo sapiens, UniProt P28482).
T1 construct: Recombinant protein domains (bromodomain or kinases) at a concentration of 2 μM
The experiment can be described thus: Temperature shift assay (protein kinases). Type of experiment: binding. The settings on record: 10 μM probe; average of three measurements. The procedure:
(§1) Temperature shift assays have been described by Fedorov et al.[46]. Recombinant protein domains (bromodomain or kinases) at a concentration of 2 μM in 10 mM HEPES, pH 7.5, and 500 mM NaCl were mixed with 10 μM of chemical probes. Temperature-dependent protein unfolding profiles were measured using a Real-Time PCR Mx3005p machine (Stratagene).

Experiment [3] concerns the target T2, MAPK8 (Homo sapiens, UniProt P45983).
T2 construct: Recombinant protein domains (bromodomain or kinases) at a concentration of 2 μM
The experiment can be described thus: Temperature shift assay (protein kinases). Format: binding. The following applies: 10 μM probe; average of three measurements. The method, then: as §1

Experiment [4] has as its target T3, GPRK5 (Homo sapiens, UniProt P34947).
T3 construct: Recombinant protein domains (bromodomain or kinases) at a concentration of 2 μM
Description: Temperature shift assay (protein kinases). Format: binding. The following applies: 10 μM probe; average of three measurements. The method, then: as §1

Experiment [5] addresses T4, AURKB (Homo sapiens, UniProt Q96GD4).
T4 construct: Recombinant protein domains (bromodomain or kinases) at a concentration of 2 μM
The experiment can be described thus: Temperature shift assay (protein kinases). Format: binding. The settings on record: 10 μM probe; average of three measurements. The procedure:
as §1

Experiment [6] addresses T5, ABL1 (Homo sapiens, UniProt P00519).
T5 construct: Recombinant protein domains (bromodomain or kinases) at a concentration of 2 μM
T5 sequence (P00519 242-493 limits assumed): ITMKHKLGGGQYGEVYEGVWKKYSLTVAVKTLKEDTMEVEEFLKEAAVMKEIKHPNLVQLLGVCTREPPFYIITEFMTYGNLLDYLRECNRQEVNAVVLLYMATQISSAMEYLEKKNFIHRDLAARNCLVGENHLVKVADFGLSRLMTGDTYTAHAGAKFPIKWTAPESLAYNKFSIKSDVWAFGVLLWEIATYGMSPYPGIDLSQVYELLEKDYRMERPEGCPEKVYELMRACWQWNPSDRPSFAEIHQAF
Description: Temperature shift assay (protein kinases). Format: binding. The settings on record: 10 μM probe; average of three measurements. The method, then: as §1

Experiment [7] addresses T6, EPHA2 (Homo sapiens, UniProt P29317).
T6 construct: Recombinant protein domains (bromodomain or kinases) at a concentration of 2 μM
T6 sequence (P29317 613-875 limits assumed): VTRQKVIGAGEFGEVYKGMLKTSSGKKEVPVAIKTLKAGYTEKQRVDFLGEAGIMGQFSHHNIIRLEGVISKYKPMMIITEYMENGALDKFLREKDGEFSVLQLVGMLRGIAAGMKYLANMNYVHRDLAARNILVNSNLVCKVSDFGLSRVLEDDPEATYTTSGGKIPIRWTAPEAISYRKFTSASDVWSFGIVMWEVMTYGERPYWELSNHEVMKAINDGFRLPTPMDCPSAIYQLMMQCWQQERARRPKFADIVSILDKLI
Description: Temperature shift assay (protein kinases). The following applies: 10 μM probe; average of three measurements. Type of experiment: binding. The method, then: as §1

Experiment [8] has as its target T7, CAMK1G (Homo sapiens, UniProt Q96NX5).
T7 construct: Recombinant protein domains (bromodomain or kinases) at a concentration of 2 μM
The experiment can be described thus: Temperature shift assay (protein kinases). Format: binding. The settings on record: 10 μM probe; average of three measurements. The method, then:
as §1

For experiment [9], the target named is T8, CK2A1 (Homo sapiens, UniProt P68400).
T8 construct: Recombinant protein domains (bromodomain or kinases) at a concentration of 2 μM
T8 sequence (P68400 39-324 limits assumed): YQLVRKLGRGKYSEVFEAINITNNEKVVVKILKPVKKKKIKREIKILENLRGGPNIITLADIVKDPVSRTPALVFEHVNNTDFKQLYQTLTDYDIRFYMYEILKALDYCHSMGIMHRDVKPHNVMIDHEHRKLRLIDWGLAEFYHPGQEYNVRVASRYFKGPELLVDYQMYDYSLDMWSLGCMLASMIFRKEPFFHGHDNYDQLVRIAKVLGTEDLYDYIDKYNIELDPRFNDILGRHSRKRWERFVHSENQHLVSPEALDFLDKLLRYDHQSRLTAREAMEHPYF
The experiment can be described thus: Temperature shift assay (protein kinases). Type of experiment: binding. The following applies: 10 μM probe; average of three measurements. The method, then: as §1

Experiment [10] concerns the target T9, GSG2 (Homo sapiens, UniProt Q8TF76).
T9 construct: Recombinant protein domains (bromodomain or kinases) at a concentration of 2 μM
T9 sequence (Q8TF76 484-798 limits assumed): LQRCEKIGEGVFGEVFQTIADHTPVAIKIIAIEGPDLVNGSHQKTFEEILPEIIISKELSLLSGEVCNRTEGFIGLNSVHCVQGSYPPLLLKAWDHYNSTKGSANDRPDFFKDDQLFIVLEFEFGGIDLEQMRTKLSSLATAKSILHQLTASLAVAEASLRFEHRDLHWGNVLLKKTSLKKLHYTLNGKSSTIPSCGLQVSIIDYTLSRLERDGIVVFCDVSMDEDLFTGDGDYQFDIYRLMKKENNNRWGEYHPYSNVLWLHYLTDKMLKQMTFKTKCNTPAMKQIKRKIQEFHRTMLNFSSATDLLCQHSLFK
The experiment can be described thus: Temperature shift assay (protein kinases). Type of experiment: binding. The following applies: 10 μM probe; average of three measurements. The procedure: as §1

Experiment [11] concerns the target T10, PHGK2 (Homo sapiens, UniProt P15735).
T10 construct: Recombinant protein domains (bromodomain or kinases) at a concentration of 2 μM
T10 sequence (P15735 24-291 limits assumed): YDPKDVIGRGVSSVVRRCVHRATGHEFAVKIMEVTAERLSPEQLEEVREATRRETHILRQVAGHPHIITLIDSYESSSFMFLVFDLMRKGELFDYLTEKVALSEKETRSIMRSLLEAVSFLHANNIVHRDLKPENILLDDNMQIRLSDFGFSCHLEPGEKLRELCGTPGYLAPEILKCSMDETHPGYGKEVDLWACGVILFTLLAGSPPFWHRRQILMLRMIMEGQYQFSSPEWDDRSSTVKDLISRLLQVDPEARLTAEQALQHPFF
The experiment can be described thus: Temperature shift assay (protein kinases). Type of experiment: binding. The following applies: 10 μM probe; average of three measurements. The method, then:
as §1

Experiment [12] concerns the target T11, CSNK1D (Homo sapiens, UniProt P48730).
T11 construct: Recombinant protein domains (bromodomain or kinases) at a concentration of 2 μM
T11 sequence (P48730 9-277 limits assumed): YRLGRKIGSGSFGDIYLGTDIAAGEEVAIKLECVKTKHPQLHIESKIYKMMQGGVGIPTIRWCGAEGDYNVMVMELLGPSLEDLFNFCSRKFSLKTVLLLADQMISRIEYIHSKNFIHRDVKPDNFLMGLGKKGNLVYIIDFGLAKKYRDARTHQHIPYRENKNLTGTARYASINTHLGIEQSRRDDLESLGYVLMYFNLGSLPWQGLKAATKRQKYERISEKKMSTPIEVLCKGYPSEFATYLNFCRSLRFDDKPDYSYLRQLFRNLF
Description: Temperature shift assay (protein kinases). Type of experiment: binding. The following applies: 10 μM probe; average of three measurements. The method, then: as §1

Experiment [13] concerns the target T12, CASK (Homo sapiens, UniProt O14936).
T12 construct: Recombinant protein domains (bromodomain or kinases) at a concentration of 2 μM
T12 sequence (O14936 12-276 limits assumed): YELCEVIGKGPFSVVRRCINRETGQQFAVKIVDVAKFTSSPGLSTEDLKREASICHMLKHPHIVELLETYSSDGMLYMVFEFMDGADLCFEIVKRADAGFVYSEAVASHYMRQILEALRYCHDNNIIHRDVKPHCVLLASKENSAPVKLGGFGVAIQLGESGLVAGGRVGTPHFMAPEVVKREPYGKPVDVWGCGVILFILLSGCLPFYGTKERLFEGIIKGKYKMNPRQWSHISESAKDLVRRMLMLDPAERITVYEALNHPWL
The experiment can be described thus: Temperature shift assay (protein kinases). The following applies: 10 μM probe; average of three measurements. Type of experiment: binding. The method, then:
as §1

The target in experiment [14] is T13, CAMKK2 (Homo sapiens, UniProt Q96RR4).
T13 construct: Recombinant protein domains (bromodomain or kinases) at a concentration of 2 μM
T13 sequence (Q96RR4 165-446 limits assumed, species assumed): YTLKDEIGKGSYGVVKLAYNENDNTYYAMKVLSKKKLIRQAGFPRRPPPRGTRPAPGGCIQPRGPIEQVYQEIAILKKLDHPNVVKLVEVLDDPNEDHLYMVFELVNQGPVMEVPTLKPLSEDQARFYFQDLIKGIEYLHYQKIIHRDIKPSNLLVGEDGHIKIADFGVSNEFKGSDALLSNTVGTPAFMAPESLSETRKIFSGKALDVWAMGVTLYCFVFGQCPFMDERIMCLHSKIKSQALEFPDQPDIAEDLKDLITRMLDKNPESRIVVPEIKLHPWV
The experiment can be described thus: Temperature shift assay (protein kinases). Type of experiment: binding. The settings on record: 10 μM probe; average of three measurements. The method, then: as §1

For experiment [15], the target named is T14, PIM1 (Homo sapiens, UniProt P11309).
T14 construct: Recombinant protein domains (bromodomain or kinases) at a concentration of 2 μM
T14 sequence (P11309 38-290 limits assumed, species assumed): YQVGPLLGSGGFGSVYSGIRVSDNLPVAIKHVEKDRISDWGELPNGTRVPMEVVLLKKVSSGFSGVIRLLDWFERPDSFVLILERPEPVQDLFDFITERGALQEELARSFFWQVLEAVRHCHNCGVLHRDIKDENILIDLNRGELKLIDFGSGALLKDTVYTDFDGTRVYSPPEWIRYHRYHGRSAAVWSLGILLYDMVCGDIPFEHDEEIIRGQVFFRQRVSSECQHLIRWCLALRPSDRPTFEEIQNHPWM
The experiment can be described thus: Temperature shift assay (protein kinases). Type of experiment: binding. The following applies: 10 μM probe; average of three measurements. The method, then:
as §1

Where [16] appears, read: KD (BROMOscan), sheet prints no unit (nM).

For six compounds, Kd and Temperature shift results are on record in publication PMC6478789, “A chemical toolbox for the study of bromodomains and epigenetic signaling” (Nature Communications, 2019).

Chain of SMARCA2(iso.A) (P51531 1378-1506 limits assumed): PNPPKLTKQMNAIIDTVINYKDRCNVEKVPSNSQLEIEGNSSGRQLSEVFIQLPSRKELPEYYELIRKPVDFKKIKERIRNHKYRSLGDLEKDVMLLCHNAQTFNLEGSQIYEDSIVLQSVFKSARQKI
T3 sequence (P34947 186-448 limits assumed, species assumed): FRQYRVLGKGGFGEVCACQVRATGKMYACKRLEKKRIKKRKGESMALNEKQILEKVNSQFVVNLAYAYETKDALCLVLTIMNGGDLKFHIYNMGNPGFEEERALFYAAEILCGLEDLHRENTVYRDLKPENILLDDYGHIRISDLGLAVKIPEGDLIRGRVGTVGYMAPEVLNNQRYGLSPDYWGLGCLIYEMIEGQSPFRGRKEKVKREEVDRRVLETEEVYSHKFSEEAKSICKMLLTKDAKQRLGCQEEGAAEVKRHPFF
T7 sequence (Q96NX5 23-277 limits assumed, species assumed): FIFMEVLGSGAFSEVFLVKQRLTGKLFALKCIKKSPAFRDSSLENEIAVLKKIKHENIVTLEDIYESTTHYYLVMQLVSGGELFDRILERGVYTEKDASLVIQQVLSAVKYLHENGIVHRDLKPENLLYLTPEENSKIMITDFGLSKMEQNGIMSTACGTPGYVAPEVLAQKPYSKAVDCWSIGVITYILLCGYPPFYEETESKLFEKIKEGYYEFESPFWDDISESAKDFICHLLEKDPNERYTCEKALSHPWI
T1 sequence (P28482 25-313 limits assumed, species assumed): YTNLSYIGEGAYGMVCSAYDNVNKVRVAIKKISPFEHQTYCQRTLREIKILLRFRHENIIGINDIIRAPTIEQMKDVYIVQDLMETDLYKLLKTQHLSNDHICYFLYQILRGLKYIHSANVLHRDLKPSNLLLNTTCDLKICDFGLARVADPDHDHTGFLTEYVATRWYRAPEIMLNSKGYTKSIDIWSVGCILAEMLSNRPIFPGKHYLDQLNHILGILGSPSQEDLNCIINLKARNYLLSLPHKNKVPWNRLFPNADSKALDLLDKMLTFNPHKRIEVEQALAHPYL
T2 sequence (P45983 26-321 limits assumed, species assumed): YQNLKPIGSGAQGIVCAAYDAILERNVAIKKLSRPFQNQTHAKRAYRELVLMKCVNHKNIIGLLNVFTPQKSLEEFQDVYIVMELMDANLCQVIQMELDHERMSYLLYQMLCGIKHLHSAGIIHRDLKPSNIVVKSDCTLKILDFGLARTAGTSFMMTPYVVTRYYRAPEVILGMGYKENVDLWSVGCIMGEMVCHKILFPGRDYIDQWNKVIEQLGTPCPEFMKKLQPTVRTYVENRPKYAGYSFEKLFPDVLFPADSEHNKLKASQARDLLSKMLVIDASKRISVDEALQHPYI
T4 sequence (Q96GD4 77-327 limits assumed, species assumed): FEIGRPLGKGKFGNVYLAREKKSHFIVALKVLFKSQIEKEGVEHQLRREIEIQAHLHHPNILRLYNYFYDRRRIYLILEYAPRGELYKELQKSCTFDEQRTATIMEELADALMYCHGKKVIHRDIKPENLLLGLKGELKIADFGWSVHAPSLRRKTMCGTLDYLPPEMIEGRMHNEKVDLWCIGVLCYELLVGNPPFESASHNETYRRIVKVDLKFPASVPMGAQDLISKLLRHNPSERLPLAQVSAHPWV

Take `COc1ccc(CCc2nc3cc(-c4c(C)noc4C)ccc3n2C[C@H](C)N2CCOCC2)cc1Cl` [SGC-CBP30]: the Kd (in general, the equilibrium constant for the complex coming apart) in [1] (setting [16]) was more than 30000 nM; in experiment [1] (KD, BROMOscan, SMARCA2(iso.A)) it was more than 100000 nM.
With `CCCOc1ccn2c(C(C)=O)cc(-c3ccccc3S(C)(=O)=O)c2c1` [GSK2801], the Kd in experiment [1] (setting [16]) is more than 30000 nM; in [1] (KD, BROMOscan Gene Symbol SMARCA2(iso.A)) it was more than 100000 nM.
`Cc1nnc2c3ccccc3c(N[C@@H](C)[C@H](c3ccccc3)N(C)C)nn12` [L-Moses]: the Temperature shift in experiment [2] is given as 0.1 Kelvin; in experiment [3] it was 0.6 Kelvin; in experiment [4], -0.3 Kelvin; in experiment [5], 0.4 Kelvin; in experiment [6] it was 0.0 Kelvin; in experiment [7], 1.1 Kelvin. The Temperature shift is listed as -0.3 Kelvin in [8]; -0.1 Kelvin in experiment [9]; 0.1 Kelvin in [10]; -0.1 Kelvin in [11]; 0.6 Kelvin in [12]; -0.1 Kelvin in experiment [13]. In addition, the Temperature shift in [14] is listed as -0.1 Kelvin; in [15] it was 2.3 Kelvin.
With `CCC(=O)N1CCOc2c(cc(-c3ccc(OC)c(OC)c3)cc2OCC2CCCN(C)C2)C1` (stereo not shown) [I-CBP112], the Temperature shift was 0.2 Kelvin in experiment [2]; 0.3 Kelvin in experiment [3]; -0.4 Kelvin in [4]; 0.3 Kelvin in experiment [5]; 0.0 Kelvin in experiment [6]; 1.1 Kelvin in experiment [7]. The Temperature shift in experiment [8] is recorded as -0.2 Kelvin; in experiment [9] it was -1.9 Kelvin; in [10] it was 0.1 Kelvin; in experiment [11], 0.1 Kelvin; in experiment [12], 0.5 Kelvin; in experiment [13] it was 0.0 Kelvin. Moreover, the figures for the Temperature shift in [14] and in experiment [15] were -0.4 Kelvin and -0.1 Kelvin, respectively. Moreover, the Kd in experiment [1] (setting [16]) was more than 30000 nM; in experiment [1] (KD, SMARCA2(iso.A)), more than 100000 nM.
For the compound `O=C(O)c1ccccc1O` [Salicylic Acid], binding in experiment [1] (KD, SMARCA2(iso.A)) was put at a Kd of 950000 nM.
For `Cc1cc2c(cc1N1C(=O)c3cccc4c(CCCO)ccc(c34)C1=O)n(C)c(=O)n2C` [BAY-299], the Temperature shift is listed as 0.0 Kelvin in experiment [2]; -0.4 Kelvin in experiment [3]; -0.3 Kelvin in experiment [4]; 0.2 Kelvin in experiment [5]; 0.0 Kelvin in experiment [6]; 2.0 Kelvin in experiment [7]. In addition, the Temperature shift in [8] is reported as -0.6 Kelvin; in [9] it was -1.4 Kelvin; in [10], 0.1 Kelvin; in experiment [11] it was 0.0 Kelvin; in [12] it was 1.2 Kelvin; in [13], -0.1 Kelvin. The Temperature shift is on record as -0.4 Kelvin in experiment [14] and -0.2 Kelvin in [15].
